Results from US10947242B2, “[1,2,4]triazolo[1,5and#8208;A]pyrimidine compounds as PDE2 inhibitors” (Janssen Pharmaceutica NV, priority 2016, dated 2021).
Read-outs that look alike come from different tables or passages of the source.

Tests used:
[1] = target: T1, Human recombinant PDE2A (hPDE2A) (Homo sapiens, UniProt O00408); assay: In vitro assay PDE2A (SPA, 3H-cGMP hydrolysis); assay type: biochemical; settings: for Emax: read-out: hPDE2A Emax
T1 construct: His tag (inferred from metal chelate purification); made in house; host or cells: Sf9 insect cells (baculovirus)
T1 sequence (O00408 whole entry): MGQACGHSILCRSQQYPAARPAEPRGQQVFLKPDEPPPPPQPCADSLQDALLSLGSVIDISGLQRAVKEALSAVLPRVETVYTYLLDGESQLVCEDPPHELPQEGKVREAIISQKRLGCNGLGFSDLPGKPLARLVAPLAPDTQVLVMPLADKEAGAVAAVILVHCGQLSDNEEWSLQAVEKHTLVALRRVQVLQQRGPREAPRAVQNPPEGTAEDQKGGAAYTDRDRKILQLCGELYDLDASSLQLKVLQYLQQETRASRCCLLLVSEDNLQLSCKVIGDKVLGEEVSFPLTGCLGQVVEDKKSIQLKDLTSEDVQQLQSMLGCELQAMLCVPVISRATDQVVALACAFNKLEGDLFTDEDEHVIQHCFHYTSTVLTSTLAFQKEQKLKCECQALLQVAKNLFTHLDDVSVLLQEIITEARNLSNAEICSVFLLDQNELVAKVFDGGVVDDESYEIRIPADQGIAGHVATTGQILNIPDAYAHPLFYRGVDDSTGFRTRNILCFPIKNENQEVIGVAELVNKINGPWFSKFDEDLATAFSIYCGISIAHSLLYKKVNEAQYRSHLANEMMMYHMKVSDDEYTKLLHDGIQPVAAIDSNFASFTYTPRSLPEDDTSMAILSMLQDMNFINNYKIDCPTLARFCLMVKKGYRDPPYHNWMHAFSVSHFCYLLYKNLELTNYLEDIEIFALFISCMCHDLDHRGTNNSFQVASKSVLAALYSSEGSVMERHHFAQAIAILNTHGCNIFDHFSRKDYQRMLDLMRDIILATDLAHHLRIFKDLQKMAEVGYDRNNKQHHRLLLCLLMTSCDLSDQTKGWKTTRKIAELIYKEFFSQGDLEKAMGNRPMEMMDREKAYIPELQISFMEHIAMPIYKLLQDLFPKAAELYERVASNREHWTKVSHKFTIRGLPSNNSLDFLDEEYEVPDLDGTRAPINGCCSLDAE

[2] = target: T2, Human recombinant PDE10A (hPDE10A) (Homo sapiens, UniProt Q9Y233); assay: In vitro assay PDE10A, human clone (SPA, 3H-cAMP hydrolysis); assay type: biochemical
T2 construct: His tag (inferred from metal chelate purification); made in house; host or cells: Sf9 insect cells (baculovirus)
T2 sequence (Q9Y233 267-1055): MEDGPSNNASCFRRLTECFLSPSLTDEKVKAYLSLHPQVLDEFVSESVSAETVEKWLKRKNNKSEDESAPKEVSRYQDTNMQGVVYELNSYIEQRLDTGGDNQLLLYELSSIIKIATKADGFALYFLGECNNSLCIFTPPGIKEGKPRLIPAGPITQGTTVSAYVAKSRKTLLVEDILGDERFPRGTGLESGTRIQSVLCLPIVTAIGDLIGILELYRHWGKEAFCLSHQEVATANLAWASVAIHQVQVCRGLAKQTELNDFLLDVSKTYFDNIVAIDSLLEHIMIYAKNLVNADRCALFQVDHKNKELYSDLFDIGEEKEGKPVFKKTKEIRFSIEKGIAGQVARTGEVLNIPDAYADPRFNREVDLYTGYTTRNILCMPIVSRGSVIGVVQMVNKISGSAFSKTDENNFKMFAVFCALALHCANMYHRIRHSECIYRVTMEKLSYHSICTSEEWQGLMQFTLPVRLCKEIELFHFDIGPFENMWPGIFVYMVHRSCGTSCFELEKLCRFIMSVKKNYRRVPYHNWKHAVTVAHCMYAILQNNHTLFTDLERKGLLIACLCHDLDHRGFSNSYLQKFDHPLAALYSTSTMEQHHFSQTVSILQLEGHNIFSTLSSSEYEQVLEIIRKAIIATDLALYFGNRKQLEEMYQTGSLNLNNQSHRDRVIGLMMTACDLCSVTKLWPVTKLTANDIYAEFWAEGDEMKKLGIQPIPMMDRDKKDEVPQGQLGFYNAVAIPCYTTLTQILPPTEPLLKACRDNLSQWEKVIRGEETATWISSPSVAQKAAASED
In short: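 Hydrolysis of 3H-cAMP (60 nM cAMP, 0.008 μCi tracer) proceeded for 60 min at room temperature, with the product detected by SPA bead scintillation counting. The enzyme was hPDE10A from baculovirus-infected Sf9 cells in Tris pH 7.8 buffer with MgCl2 and EGTA, and compounds were at 1% DMSO final. Blanks lacked enzyme.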

[3] = target: T3, Human recombinant PDE3A (hPDE3A) (Homo sapiens, UniProt Q14432); assay: In vitro assay PDE3A (SPA, 3H-cAMP hydrolysis); assay type: biochemical; settings: for IC50: hPDE3B pIC50, read-out: pIC50 (converted); for Emax: read-out: hPDE3B Emax, read-out: Emax;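 for all read-outs here: the method names PDE3A and the table heading PDE3B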
T3 construct: purchased Scottish Biomedical; host or cells: Sf9 insect cells
T3 sequence (Q14432 whole entry): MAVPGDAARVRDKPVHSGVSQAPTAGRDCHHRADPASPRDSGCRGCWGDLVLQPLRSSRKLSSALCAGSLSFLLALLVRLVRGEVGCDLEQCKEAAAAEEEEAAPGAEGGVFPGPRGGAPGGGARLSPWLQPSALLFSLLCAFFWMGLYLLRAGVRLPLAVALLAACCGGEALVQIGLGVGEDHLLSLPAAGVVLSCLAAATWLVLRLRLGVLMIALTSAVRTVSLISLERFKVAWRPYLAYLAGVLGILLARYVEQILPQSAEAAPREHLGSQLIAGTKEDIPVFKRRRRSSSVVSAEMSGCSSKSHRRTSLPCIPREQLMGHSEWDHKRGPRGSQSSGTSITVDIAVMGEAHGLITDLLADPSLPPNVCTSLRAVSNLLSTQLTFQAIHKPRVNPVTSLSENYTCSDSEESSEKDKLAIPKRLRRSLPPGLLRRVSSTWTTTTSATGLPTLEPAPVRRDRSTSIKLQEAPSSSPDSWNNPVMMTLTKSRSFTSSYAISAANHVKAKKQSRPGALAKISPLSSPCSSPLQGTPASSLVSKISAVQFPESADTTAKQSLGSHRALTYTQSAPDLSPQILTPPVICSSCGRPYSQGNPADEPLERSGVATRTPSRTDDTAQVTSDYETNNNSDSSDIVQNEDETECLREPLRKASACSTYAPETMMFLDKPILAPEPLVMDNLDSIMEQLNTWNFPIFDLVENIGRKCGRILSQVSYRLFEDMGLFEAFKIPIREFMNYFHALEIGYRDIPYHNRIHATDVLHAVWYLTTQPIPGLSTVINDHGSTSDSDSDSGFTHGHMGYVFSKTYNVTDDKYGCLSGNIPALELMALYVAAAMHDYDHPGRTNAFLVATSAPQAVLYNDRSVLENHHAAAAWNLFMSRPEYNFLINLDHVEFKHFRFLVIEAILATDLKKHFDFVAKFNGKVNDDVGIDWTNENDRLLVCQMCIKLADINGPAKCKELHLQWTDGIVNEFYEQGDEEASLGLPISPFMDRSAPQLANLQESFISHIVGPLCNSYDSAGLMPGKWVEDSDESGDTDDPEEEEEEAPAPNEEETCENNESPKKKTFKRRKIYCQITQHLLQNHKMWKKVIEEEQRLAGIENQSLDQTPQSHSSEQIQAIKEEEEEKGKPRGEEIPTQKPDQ
In short: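 Radiometric SPA measuring [3H]-cAMP hydrolysis (0.4 μM cAMP, 2.4 μCi/ml) over 60 min at room temperature, in Tris pH 7.8 buffer with MgCl2 and EGTA, 1% DMSO. Enzyme: recombinant human brain PDE3A expressed in Sf9 cells, used as partially purified lysate. Counts compared with enzyme-free blanks and vehicle controls.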

[4] = target: T4, PDE2A (Rattus norvegicus, UniProt Q01062); assay: PDE2 occupancy by test compounds, ex-vivo autoradiography with [3H]B-17a; assay type: in vivo, Male Wistar rats; settings: 10 mg/kg, route PO (oral), percentage receptor occupancy, ex-vivo autoradiography, striatum
T4 construct: Twenty μm-thick striatal sections were cut; from tissue; host or cells: rat brain, striatal sections
T4 sequence (Q01062 1-928): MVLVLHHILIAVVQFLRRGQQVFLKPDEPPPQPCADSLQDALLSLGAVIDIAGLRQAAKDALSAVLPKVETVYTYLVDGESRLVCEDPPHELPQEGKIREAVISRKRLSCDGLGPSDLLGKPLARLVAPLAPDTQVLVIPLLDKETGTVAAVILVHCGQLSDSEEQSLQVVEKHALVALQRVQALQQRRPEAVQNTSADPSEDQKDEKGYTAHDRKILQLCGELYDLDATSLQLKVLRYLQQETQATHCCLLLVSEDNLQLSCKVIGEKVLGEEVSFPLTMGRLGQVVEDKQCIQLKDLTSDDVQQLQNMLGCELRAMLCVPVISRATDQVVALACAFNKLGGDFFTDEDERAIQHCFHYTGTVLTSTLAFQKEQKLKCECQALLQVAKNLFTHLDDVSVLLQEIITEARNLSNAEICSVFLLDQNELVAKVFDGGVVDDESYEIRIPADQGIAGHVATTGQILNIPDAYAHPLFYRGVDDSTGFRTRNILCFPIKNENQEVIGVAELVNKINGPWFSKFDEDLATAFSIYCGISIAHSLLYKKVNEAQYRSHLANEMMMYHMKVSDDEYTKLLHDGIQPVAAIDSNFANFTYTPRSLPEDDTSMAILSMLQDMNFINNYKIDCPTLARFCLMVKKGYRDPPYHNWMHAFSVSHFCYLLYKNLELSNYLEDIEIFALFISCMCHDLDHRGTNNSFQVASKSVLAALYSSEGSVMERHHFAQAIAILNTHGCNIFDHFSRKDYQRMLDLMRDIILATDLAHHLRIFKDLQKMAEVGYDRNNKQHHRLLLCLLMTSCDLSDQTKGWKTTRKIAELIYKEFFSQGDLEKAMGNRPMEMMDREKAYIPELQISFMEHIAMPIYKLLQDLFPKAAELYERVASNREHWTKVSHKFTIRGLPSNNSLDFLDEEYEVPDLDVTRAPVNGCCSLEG

[5] = human recombinant PDE2A, 10 μM cGMP substrate, read-out: hPDE2A pIC50 (converted)
[6] = read-out: hPDE2A pIC50 (converted)
[7] = human clone (h), default, read-out: hPDE10A2 pIC50 (converted)
[8] = human clone (h), default, read-out: hPDE10A2 Emax
[9] = human clone by default (no (r) mark), read-out: hPDE10A2 or rPDE10A2 Emax
[10] = human clone by default (no (r) mark), read-out: hPDE10A2 or rPDE10A2 pIC50 (converted)

Row | Compound | melting point | hPDE2A Emax [1] | hPDE2A Emax ([1]; human recombinant PDE2A) | IC50 [1, 5] | IC50 [1, 6] | hPDE10A2 Emax ([2]; human clone (h), default) | IC50 [2, 7] | hPDE3B Emax [3] | Emax ([1]; human recombinant PDE2A) | Emax [1] | Emax [2, 8] | IC50 [3] | Emax [3] | IC50 ([1]; hPDE2A pIC50) | IC50 ([1]; hPDE2A pIC50, human recombinant PDE2A, 10 μM cGMP substrate) | Emax [2, 9] | IC50 [2, 10] | receptor occupancy at 10 mg/kg [4] | receptor occupancy at 10 mg/kg ([4]; po)
1 | Cn1ccc2c(F)c(C(=O)N3[C@H]4CC[C@H](c5cc(C(F)F)nc6ncnn56)[C@@H]3CC4)ccc21 | 220.89 °C |  |  |  |  |  |  |  |  |  |  |  |  |  |  |  |  |  | 
2 | Cc1cc(C(=O)N2[C@H]3CC[C@H](c4cc(C(F)F)nc5ncnn45)[C@@H]2CC3)cc(C)n1 (racemic) [Compound 31] | 190.16 °C | 100 | 100 | 0.00251 µM | 0.00251 µM | 84 | 1.12 µM | 8 |  |  |  |  |  |  |  |  |  |  | 
3 | Cc1cc(C)cc(C(=O)N2CCC[C@](C)(c3cc(C(F)F)nc4ncnn34)C2)c1 (single isomer, unassigned) [Compound 206] | 145.73 °C |  |  | 1.66 µM | 1.66 µM |  | > 10 µM |  | 39% | 39% | 16% | > 10 µM | -1% |  |  |  |  |  | 
4 | Cc1nn(C)cc1C(=O)N1CCC[C@](C)(c2cc(C(F)F)nc3ncnn23)C1 (single isomer, unassigned) [Compound 207] | 173.79 °C |  |  | 7.94 µM | 7.94 µM |  | > 10 µM |  | 21% | 21% | -5% | > 10 µM | 2% |  |  |  |  |  | 
5 | C[C@]1(c2cc(C(F)F)nc3ncnn23)CCCN(C(=O)c2ccc3occc3c2)C1 (single isomer, unassigned) [Compound 209] | 145.19 °C |  |  | 0.724 µM | 0.724 µM |  | > 10 µM |  | 57% | 57% | 7% | > 10 µM | 25% |  |  |  |  |  | 
6 | Cc1ccc(C(=O)N2CCC[C@](C)(c3cc(C(F)F)nc4ncnn34)C2)c(C)n1 (single isomer, unassigned) [Compound 210] | 195.81 °C |  |  | 0.617 µM | 0.617 µM |  | > 10 µM |  | 56% | 56% | 16% | > 10 µM | 5% |  |  |  |  |  | 
7 | Cc1cc(C(=O)N2CCC[C@](C)(c3cc(C(F)F)nc4ncnn34)C2)cc(C)n1 (single isomer, unassigned) [Compound 211] | 117.5 °C |  |  | > 10 µM | > 10 µM |  | > 10 µM |  | 3% | 3% | 10% | > 10 µM | 13% |  |  |  |  |  | 
8 | Cc1cc(C(=O)N2CC[C@@H](C)[C@H](c3cc(C)nc4ncnn34)C2)cc(C2CC2)n1 [Compound 23] | 169.13 °C |  |  |  |  |  | 0.00708 µM |  |  | 101% | 100% | 1.05 µM | 90% | 0.000468 µM | 0.000468 µM |  |  |  | 
9 | C[C@@H]1CCN(C(=O)c2ccc(Cl)c(Cl)c2)C[C@H]1c1cc(C(F)F)nc2ncnn12 [Compound 111] | 188.75 °C |  |  | 0.000977 µM | 0.000977 µM |  | 0.038 µM |  | 100% | 100% | 99% | 1.05 µM | 92% |  |  |  |  |  | 
10 | COc1cc(C(=O)N2CC[C@@H](C)[C@H](c3cc(C(F)F)nc4ncnn34)C2)ccc1C1CC1 [Compound 118] | 179.82 °C |  |  | 0.00166 µM | 0.00166 µM |  | 0.0741 µM |  | 101% | 101% | 99% | 0.955 µM | 92% |  |  |  |  |  | 
11 | Cc1cc(C)nc(C(=O)N2CC[C@@H](C)[C@H](c3cc(C(F)F)nc4ncnn34)C2)c1 [Compound 137] | 229.91 °C |  |  | 0.0282 µM | 0.0282 µM |  | 1.35 µM |  | 100% | 100% | 84% | > 10 µM | 35% |  |  |  |  |  | 
12 | C[C@H]1CCN(C(=O)c2ccc3occc3c2)C[C@@H]1c1cc(C(F)F)nc2ncnn12 [Compound 221] | 122.37 °C |  |  |  |  |  |  |  |  |  |  |  |  |  |  |  |  |  | 
13 | Cc1nc2ccc(C(=O)N3[C@H]4CC[C@H](c5cc(C(F)F)nc6ncnn56)[C@@H]3CC4)cc2s1 [Compound 368] |  |  |  |  | 0.00617 µM |  |  |  |  | 101% |  | 6.46 µM | 61% |  |  | 99% | 0.251 µM | 11% | 
14 | Cc1ccc(C(=O)N2[C@H]3CC[C@H](c4cc(C(F)F)nc5ncnn45)[C@@H]2CC3)cc1Cl [Compound 369] |  |  |  |  | 0.0049 µM |  |  |  |  | 100% |  | 3.72 µM | 72% |  |  | 93% | 0.724 µM | 9% | 
15 | Cc1cc([C@@H]2CN(C(=O)c3cc(C4CC4)ncc3Cl)CC[C@H]2C)n2ncnc2n1 [Compound 391] |  |  |  |  | 0.0024 µM |  |  |  |  | 99% |  | 2.24 µM | 81% |  |  | 97% | 0.0631 µM |  | 3%
16 | Cc1cc(C(=O)N2CC[C@@H](C)[C@H](c3cc(C(F)F)nc4ncnn34)C2)c(F)c(OC2CC2)n1 [Compound 392] |  |  |  |  | 0.00112 µM |  |  |  |  | 99% |  | 0.447 µM | 97% |  |  | 93% | 0.263 µM |  | 46%
17 | COc1cc(C(=O)N2CC[C@@H](C)[C@H](c3cc(C(F)F)nc4ncnn34)C2)c(F)c(C)n1 [Compound 398] |  |  |  |  | 0.0049 µM |  |  |  |  | 99% |  | 5.25 µM | 67% |  |  | 95% | 0.589 µM |  | 29%
